Measured values reported in patent US6608073B1 (New Millennium Pharmaceutical Research, Inc., priority 1998, dated 2003).

What was measured:
[1] = Penetration of codeine into CSF of rats after intravenous or intranasal administration (HPLC); details: 60 minutes post-dose
Procedure: At 60 minutes post-dose, the rats were sacrificed, and the CSF (0.1 ml) was recovered and injected directly onto the HPLC column.

[2] = Plasma levels of codeine in rats after intravenous or intranasal administration (HPLC)
Procedure: One hundred μL of rat plasma was treated with 100 μL of acetonitrile to precipitate the proteins. This mixture was centrifuged for 5 minutes at 5,000×g. The clear supernatant was injected onto the HPLC column.
The HPLC system included the following:
Column: Altex 5 micron Ultrasphere, 4.6 mm×25 cm
Mobile Phase: Acetonitrile: 0.01 M Acetate buffer (pH 4.0)−50:50
Standard Curve: See FIG. 1

[3] = in vivo; cited from earlier work
[4] = rat, plasma, inhaled or intranasal, 10 mg/kg
[5] = rat, plasma, other: intranasal, 5 mg/kg
[6] = rat, plasma, other: intranasal, 10 mg/kg

COc1ccc2c3c1O[C@H]1[C@@H](O)C=C[C@H]4[C@@H](C2)N(C)CC[C@@]341 [Codeine]
CSF levels for 5 mg/kg intranasally compared with 10 mg/kg intravenously [1]: much higher | AUC(0-t) ([2]; rat, plasma, inhaled or intranasal, 5 mg/kg): 1480 ng·h/mL | AUC(0-t) [2, 4]: 2840 ng·h/mL | bioavailability [2, 4]: 115% | AUC(0-t) ([2]; rat, plasma, iv, 10 mg/kg): 2460 ng·h/mL | concentration at 0 min ([2]; rat, plasma, iv, 10 mg/kg): 19400 ng/mL | concentration at 2 min ([2]; rat, plasma, iv, 10 mg/kg): 9400 ng/mL | concentration at 5 min ([2]; rat, plasma, iv, 10 mg/kg): 5200 ng/mL | concentration at 10 min ([2]; rat, plasma, iv, 10 mg/kg): 2700 ng/mL | concentration at 20 min ([2]; rat, plasma, iv, 10 mg/kg): 2040 ng/mL | concentration at 40 min ([2]; rat, plasma, iv, 10 mg/kg): 1220 ng/mL | concentration at 60 min ([2]; rat, plasma, iv, 10 mg/kg): 860 ng/mL | concentration at 0 min [2, 5]: 0 ng/mL | concentration at 2 min [2, 5]: 840 ng/mL | concentration at 5 min [2, 5]: 2880 ng/mL | concentration at 10 min [2, 5]: 3150 ng/mL | concentration at 20 min [2, 5]: 2240 ng/mL | concentration at 40 min [2, 5]: 600 ng/mL | concentration at 60 min [2, 5]: 560 ng/mL | concentration at 0 min [2, 6]: 0 ng/mL | concentration at 2 min [2, 6]: 1400 ng/mL | concentration at 5 min [2, 6]: 5100 ng/mL | concentration at 10 min [2, 6]: 7620 ng/mL | concentration at 20 min [2, 6]: 3320 ng/mL | concentration at 40 min [2, 6]: 1420 ng/mL | concentration at 60 min [2, 6]: 1100 ng/mL | Absorption following intranasal administration compared with intravenous ([2]; rats, IN vs IV): rapidly and completely absorbed | Half-life in plasma [3]: 2 to 4 h
